Assay results as given in ChEMBL document CHEMBL5154928, “Structure-Aided Design, Synthesis, and Biological Evaluation of Potent and Selective Non-Nucleoside Inhibitors Targeting Protein Arginine Methyltransferase 5” (J Med Chem, 2022).
pIC50: −log10 of the molar value. Activity calls are given as the source filed them. The rule behind the calls is not given here.

Tests used:
[1] = target: T1, Protein arginine N-methyltransferase 5 (Homo sapiens, UniProt O14744); test: Displacement of [3H]-SAM from PRMT5 (unknown origin) using peptide substrate preincubated for 15 mins followed by substrate addition for 60 mins by radioactive biochemical assay
[2] = target: T1, Protein arginine N-methyltransferase 5; test: Displacement of [3H]-SAM from PRMT5 (unknown origin) at 10 uM using peptide substrate preincubated for 15 mins followed by substrate addition for 60 mins by radioactive biochemical assay relative to control
[3] = target: T1, Protein arginine N-methyltransferase 5; test: Competitive inhibition of PRMT5 (unknown origin) at 0.001 to 100000 nM using histone H4 (1 to 21 residues) as substrate incubated for 120 mins in presence of different concentrations of SAM by AlphaLISA assay; conditions: dose 0.001-100000 nM
[4] = target: T1, Protein arginine N-methyltransferase 5; test: Competitive inhibition of PRMT5 (unknown origin) in presence of MTA
CHL-1 = test: Antiproliferation activity against human CHL-1 cells assessed as cell growth inhibition incubated for 5 days by CCK-8 assay; type: functional, cell-based; conditions: dose <= 10.0 µM, time 5.0 day, DDE = dose-dependent effect
SNU-423 = test: Antiproliferation activity against human SNU-423 cells assessed as cell growth inhibition incubated for 5 days by CCK-8 assay; type: functional, cell-based; conditions: dose <= 10.0 µM, time 5.0 day, DDE = dose-dependent effect
SNU-449 = test: Antiproliferation activity against human SNU-449 cells assessed as cell growth inhibition incubated for 5 days by CCK-8 assay; type: functional, cell-based; conditions: dose <= 10.0 µM, time 5.0 day, DDE = dose-dependent effect
MDA-MB-231 = test: Antiproliferation activity against human MDA-MB-231 cells assessed as cell growth inhibition incubated for 5 days by CCK-8 assay; type: functional, cell-based; conditions: dose <= 10.0 µM, time 5.0 day, DDE = dose-dependent effect
MDA-MB-453 = test: Antiproliferation activity against human MDA-MB-453 cells assessed as cell growth inhibition incubated for 5 days by CCK-8 assay; type: functional, cell-based; conditions: dose <= 10.0 µM, time 5.0 day, DDE = dose-dependent effect
MV4-11 = test: Antiproliferation activity against human MV4-11 cells assessed as cell growth inhibition incubated for 5 days by CCK-8 assay; type: functional, cell-based; conditions: dose <= 10.0 µM, time 5.0 day, DDE = dose-dependent effect
MOLM-13 = test: Antiproliferation activity against human MOLM-13 cells assessed as cell growth inhibition incubated for 5 days by CCK-8 assay; type: functional, cell-based; conditions: dose <= 10.0 µM, time 5.0 day, DDE = dose-dependent effect
[5] = target: T1, Protein arginine N-methyltransferase 5; test: Inhibition of PRMT5 in human A-375 cells assessed as decrease in […] levels measured after 48 hrs by Western blot analysis; type: cell-based; conditions: dose 0.5-8 µM, DDE = dose-dependent effect
Mus musculus [6] = test: In vivo inhibition of PRMT5 in human A-375 cells xenografted in BALB/c mouse assessed as reduction in sDMA levels in tumor tissue at 75 mg/kg, po qd for 19 days measured after 3 weeks by Western blot analysis; type: functional, organism-based; conditions: time 19.0 day
Mus musculus [7] = test: In vivo inhibition of PRMT5 in human A-375 cells xenografted in BALB/c mouse assessed as reduction in H3R8me2s levels in tumor tissue at 75 mg/kg, po qd for 19 days measured after 3 weeks by Western blot analysis; type: functional, organism-based; conditions: time 19.0 day
Mus musculus [8] = test: In vivo inhibition of PRMT5 in human A-375 cells xenografted in BALB/c mouse assessed as reduction in H4R3me2s levels in tumor tissue at 75 mg/kg, po qd for 19 days measured after 3 weeks by Western blot analysis; type: functional, organism-based; conditions: time 19.0 day
A-375 [9] = test: Induction of apoptosis in human A-375 cells incubated for 48 hrs by Annexin-V FITC/PI staining based flow cytometry analysis; type: functional, cell-based; conditions: dose 0.5-4 µM, DDE = dose-dependent effect
[10] = Metabolic stability in human liver microsomes assessed as half life incubated for 10 mins measured up to 60 mins in presence of NADPH by LC-MS/MS analysis; type: ADME, Microsome
A-375 [11] = test: Antiproliferation activity against human A-375 cells assessed as cell growth inhibition incubated for 5 days by CCK-8 assay; conditions: A-375, 120 h
[12] = AUC (0 to infinity) in mouse at 3 mg/kg, iv measured for 0.25 to 24 hrs by LC-MS/MS analysis; type: ADME, organism-based; parameters: time upper 24 hrs, time lower 0.25 hrs, dose 3 mg/kg, route iv; conditions: in vivo
[13] = Clearance in mouse at 3 mg/kg, iv measured for 0.25 to 24 hrs by LC-MS/MS analysis; type: ADME, organism-based; conditions: in vivo, time 0.25-24 hrs
[14] = Half life in Sprague-Dawley rat at 10 mg/kg, po measured for 0.25 to 24 hrs by LC-MS/MS analysis; type: ADME, organism-based; conditions: in vivo, time 0.25-24 hrs
[15] = Half life in mouse at 3 mg/kg, iv measured for 0.25 to 24 hrs by LC-MS/MS analysis; type: ADME, organism-based; conditions: in vivo, time 0.25-24 hrs
[16] = Cmax in Sprague-Dawley rat at 10 mg/kg, po measured for 0.25 to 24 hrs by LC-MS/MS analysis; type: ADME, organism-based; parameters: time lower 0.25 hrs, dose 10 mg/kg, time upper 24 hrs, route po; conditions: in vivo
[17] = Cmax in mouse at 10 mg/kg, po measured for 0.25 to 24 hrs by LC-MS/MS analysis; type: ADME, organism-based; parameters: time lower 0.25 hrs, dose 10 mg/kg, time upper 24 hrs, route po; conditions: in vivo
[18] = AUC (0 to infinity) in Sprague-Dawley rat at 10 mg/kg, po measured for 0.25 to 24 hrs by LC-MS/MS analysis; type: ADME, organism-based; parameters: dose 10 mg/kg, time upper 24 hrs, time lower 0.25 hrs, route po; conditions: in vivo
[19] = Volume of distribution at steady state in mouse at 3 mg/kg, iv measured for 0.25 to 24 hrs by LC-MS/MS analysis; type: ADME, organism-based; conditions: in vivo, time 0.25-24 hrs, read-out: Vdss
[20] = Oral bioavailability in Sprague-Dawley rat at 10 mg/kg, measured for 0.25 to 24 hrs by LC-MS/MS analysis; type: ADME, organism-based; conditions: in vivo, time 0.25-24 hrs
[21] = Oral bioavailability in mouse at 10 mg/kg, measured for 0.25 to 24 hrs by LC-MS/MS analysis; type: ADME, organism-based; conditions: in vivo, time 0.25-24 hrs

T1 sequence (O14744 whole entry): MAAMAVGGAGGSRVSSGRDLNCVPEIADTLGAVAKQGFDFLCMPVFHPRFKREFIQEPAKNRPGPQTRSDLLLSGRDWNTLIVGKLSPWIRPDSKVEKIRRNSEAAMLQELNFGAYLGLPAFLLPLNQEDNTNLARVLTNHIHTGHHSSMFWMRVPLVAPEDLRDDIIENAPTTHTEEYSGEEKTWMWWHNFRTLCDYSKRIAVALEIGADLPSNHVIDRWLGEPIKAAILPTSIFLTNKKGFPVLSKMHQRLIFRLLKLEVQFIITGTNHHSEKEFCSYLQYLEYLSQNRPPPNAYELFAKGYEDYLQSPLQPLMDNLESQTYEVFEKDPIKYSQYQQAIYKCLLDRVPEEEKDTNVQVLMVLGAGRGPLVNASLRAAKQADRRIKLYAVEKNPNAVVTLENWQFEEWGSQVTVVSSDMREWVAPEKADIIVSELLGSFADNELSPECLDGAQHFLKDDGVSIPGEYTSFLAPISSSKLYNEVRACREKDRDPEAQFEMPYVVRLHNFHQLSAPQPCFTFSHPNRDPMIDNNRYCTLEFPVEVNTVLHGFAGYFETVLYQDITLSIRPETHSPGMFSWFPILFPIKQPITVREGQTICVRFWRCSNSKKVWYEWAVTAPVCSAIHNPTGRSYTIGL

Row | Compound | pIC50 [1] | pIC50 (A-375 [11]) | other results
1 | Nc1ncnc2c1ccn2Cc1cccc(Oc2ccccc2)c1 |  |  | inhibition [2]: 15.5%
2 | C[C@H](Oc1ccc(-c2cc3c(C4=CCNCC4)ncnc3[nH]2)cc1)c1ccccc1 |  |  | Activity [3]: Active; Activity [4]: Active; Activity (CHL-1): Dde; Activity (SNU-423): Dde; Activity (SNU-449): Dde; Activity (MDA-MB-231): Dde; Activity (MDA-MB-453): Dde; Activity (MV4-11): Dde; Activity (MOLM-13): Dde; inhibition [5]: Dde; Activity (Mus musculus [6]): Active; Activity (Mus musculus [7]): Active; Activity (Mus musculus [8]): Active; Activity (A-375 [9]): Dde
3 | C1=C(c2ncnc3[nH]c(-c4ccc(OCc5ccccc5)cc4)cc23)CCNC1 | 8.10 |  | half-life [10]: 2.99 min
4 | C[C@@H](Oc1ccc(-c2cc3c(C4=CCNCC4)ncnc3[nH]2)cc1)c1ccccc1 | 7.32 | 5.59 | half-life [10]: 18.3 min
5 | CC(Oc1ccc(-c2nc3c(C4=CCNCC4)ncnc3[nH]2)cc1)c1ccccc1 (racemic) | 7.43 | 5.14 | 
6 | C[C@@H](Oc1ccc(-c2cc3c(C4=CCNCC4)ncnc3[nH]2)c(F)c1)c1ccccc1 | 6.99 | 5.19 | 
7 | C[C@H](Oc1ccc(-c2cc3c(C4=CCNCC4)ncnc3[nH]2)cc1F)c1ccccc1 | 7.62 | 5.46 | half-life [10]: 56.2 min
8 | Cc1cc(O[C@@H](C)c2ccccc2)ccc1-c1cc2c(C3=CCNCC3)ncnc2[nH]1 | 7.48 | 5.47 | half-life [10]: 47.3 min
9 | O=C(NC[C@H](O)CN1CCc2ccccc2C1)c1cc(NC2COC2)ncn1 |  |  | inhibition [5]: Dde
10 | Nc1ncnc2c1ccn2Cc1ccc(Oc2ccccc2)cc1 |  |  | inhibition [2]: 14.1%
11 | C1=C(c2ncnc3[nH]c(-c4ccc(OCc5ccccc5)cc4)nc23)CCNC1 | 7.85 |  | half-life [10]: 2.09 min
12 | Nc1ncnc2c1ncn2Cc1ccccc1 |  |  | inhibition [2]: 15.6%
13 | Cc1cc(-c2cc3c(C4=CCNCC4)ncnc3[nH]2)ccc1O[C@@H](C)c1ccccc1 | 7.09 | 5.08 | half-life [10]: 56.8 min
14 | C[C@H](Oc1ccc(-c2cc3c(C4=CCNCC4)ncnc3[nH]2)cc1)c1ccccc1.Cl |  |  | AUC [12]: 464 h/ng/mL; clearance [13]: 153 mL/min/kg; half-life [14]: 177 min; half-life [15]: 283 min; Cmax [16]: 27.7 ng/mL; Cmax [17]: 128 ng/mL; AUC [18]: 205 h/ng/mL; Vd [19]: 47.7 L/kg; bioavailability [20]: 23.7%; bioavailability [21]: 46.2%
15 | CC(Oc1ccc(-c2cc3c(C4=CCNCC4)ncnc3[nH]2)cc1)c1ccccc1 (racemic) | 7.36 | 5.61 | half-life [10]: 26 min
16 | Nc1ncnc2c1ccn2Cc1ccccc1 |  |  | inhibition [2]: 18.1%
17 | c1ccc(COc2ccc(-c3nc4c(N5CCNCC5)ncnc4[nH]3)cc2)cc1 | 7.94 |  | 
18 | Nc1ncnc2c1ncn2-c1ccc(OCc2ccccc2)cc1 |  |  | inhibition [2]: 20.2%
19 | CC(Oc1ccc(-c2nc3c(C4=CCNCC4)ncnc3[nH]2)c(F)c1)c1ccccc1 (racemic) | 6.63 | 5.12 | 
20 | CC(Oc1ccc(-c2cc3c(C4=CCNCC4)ncnc3[nH]2)c(F)c1)c1ccccc1 (racemic) | 7.52 | 5.34 | 
21 | Nc1ncnc2c1ccn2-c1ccc(OCc2ccccc2)cc1 |  |  | inhibition [2]: 10.5%
22 | COc1cc(O[C@@H](C)c2ccccc2)ccc1-c1cc2c(C3=CCNCC3)ncnc2[nH]1 | 6.71 | 5.10 | 
23 | C[C@@H](Oc1ccc(-c2nc3c(C4=CCNCC4)ncnc3[nH]2)cc1)c1ccccc1 | 6.94 | 5.12 | 
24 | c1ccc(COc2ccc(-c3cc4c(N5CCN(C6COC6)CC5)ncnc4[nH]3)cc2)cc1 | 7.40 |  | 
25 | c1ccc(COc2ccc(-c3nc4c(N5CCOCC5)ncnc4[nH]3)cc2)cc1 | 7.35 |  | 
26 | c1ccc(COc2ccc(-c3cc4c(NC5CCNCC5)ncnc4[nH]3)cc2)cc1 | 7.65 |  | 
27 | C[C@H](Oc1ccc(-c2cc3c(C4=CCNCC4)ncnc3[nH]2)c(F)c1)c1ccccc1 | 7.66 | 5.76 | half-life [10]: 42.3 min
28 | C[C@H](Oc1ccc(-c2nc3c(C4=CCNCC4)ncnc3[nH]2)cc1)c1ccccc1 | 7.46 | 5.22 | half-life [10]: 70.1 min
29 | C[C@@H](Oc1ccc(-c2nc3c(C4=CCNCC4)ncnc3[nH]2)c(F)c1)c1ccccc1 | 6.80 | 5.06 | 
30 | C[C@H](Oc1ccc(-c2nc3c(C4=CCNCC4)ncnc3[nH]2)c(F)c1)c1ccccc1 | 7.10 | 5.27 | half-life [10]: 41.3 min

More lines, main results first:

Row | pIC50 [1] | Compound | pIC50 (A-375 [11]) | other results
31 | 7.98 | c1ccc(COc2ccc(-c3cc4c(N5CCCNCC5)ncnc4[nH]3)cc2)cc1 |  | 
32 | 6.95 | c1ccc(COc2ccc(-c3cc4c(-c5cn[nH]c5)ncnc4[nH]3)cc2)cc1 |  | 
33 | 7.94 | c1ccc(COc2ccc(-c3cc4c(N5CCNCC5)ncnc4[nH]3)cc2)cc1 |  | 
34 | 7.29 | c1ccc(COc2ccc(-c3cc4c(N5CCC6(CC5)COC6)ncnc4[nH]3)cc2)cc1 |  | 
35 | 7.76 | CN(C)CCN(C)c1ncnc2[nH]c(-c3ccc(OCc4ccccc4)cc3)cc12 |  | 
36 | 7.78 | CN1CCCN(c2ncnc3[nH]c(-c4ccc(OCc5ccccc5)cc4)cc23)CC1 |  | 
37 | 7.26 | c1ccc(COc2ccc(-c3cc4c(N5CCOCC5)ncnc4[nH]3)cc2)cc1 |  | 
38 | 7.05 | CC1(O)CCN(c2ncnc3[nH]c(-c4ccc(OCc5ccccc5)cc4)cc23)CC1 |  | 
39 | 7.08 | Nc1ncnc2[nH]c(-c3ccc(OCc4ccccc4)cc3)cc12 |  | inhibition [2]: 81.9%
40 | 7.66 | C[C@@H]1CN(c2ncnc3[nH]c(-c4ccc(OCc5ccccc5)cc4)cc23)C[C@H](C)N1 |  | 
41 | 7.56 | CN1CCN(c2ncnc3[nH]c(-c4ccc(OCc5ccccc5)cc4)cc23)CC1 |  | 
42 | 7.15 | CCN1CCN(c2ncnc3[nH]c(-c4ccc(OCc5ccccc5)cc4)cc23)CC1 |  | 
43 | 7.23 | Nc1ncnc2[nH]c(-c3ccc(OCc4ccccc4)cc3)nc12 |  | inhibition [2]: 84.4%
44 | 7.29 | O=C1CN(c2ncnc3[nH]c(-c4ccc(OCc5ccccc5)cc4)cc23)CCN1 |  | 
45 | 6.93 | Cn1cc(-c2ncnc3[nH]c(-c4ccc(OCc5ccccc5)cc4)cc23)cn1 |  | 
